# The OPERA property sets (Mansouri et al. 2018)
Compound,melting point [°C],boiling point [°C],log10 vapour pressure (mmHg),ready biodegradability,log10 Henry constant (atm·m³/mol),log10 Koc (L/kg)
C1=Cc2cc3ccc(cc4nc(cc5ccc(cc1n2)[nH]5)C=C4)[nH]3,360,,,,,
CCc1ccc2c(c1)CCCC2,-70,244,,,,
OCCCCCO,-18,239,-2.41,readily biodegradable,,
COc1cc([N+](=O)[O-])ccc1N,141,,,not readily biodegradable,,
BrC1CCCC1,,138,,,,
CC1(C)CC[C@]2(C)CC[C@]3(C)C(=CC[C@@H]4[C@@]5(C)CC[C@H](O)C(C)(C)[C@@H]5CC[C@]43C)[C@@H]2C1,197,,,,,
O=C(O)CCCCCCBr,31,280,,readily biodegradable,,
CCCC(=O)Nc1ccc(O)cc1,140,,,,,
c1ccncc1,-41.6,115,1.32,readily biodegradable,-4.96,1.6
CC(CO)CO,-91,195,-1.68,,,
CNP(=O)(NC)Oc1ccccc1,102,,,,,1.51
Brc1cc(Br)c(-c2c(Br)cc(Br)cc2Br)c(Br)c1,,,,,,4.87
c1ccc(C(=C(c2ccccc2)c2ccccc2)c2ccccc2)cc1,225,420,,,,
C[C@@H](N)C(C)(C)C,-20,102,,,,
OCC(Cl)CCl (centres undefined),,184,,,,
COC(=O)C1(S(=O)(=O)c2ccccc2)CC1,74.5,,,,,
NC(=O)Cc1ccccc1,157,,,,,
CC(=O)Oc1ccc(C)c(C)c1,22,235,,,,
N#CC(O)C(Cl)(Cl)Cl (centres undefined),61,,,,,
CCCOP(OCCC)OCCC,,206,,,,
N#CC1(O)CCCCC1,35,,,,,
COC(=O)CCS,,166,,readily biodegradable,,
N#CCc1c[nH]c2ccccc12,36,,,,,

Compound,melting point [°C],boiling point [°C],log10 vapour pressure (mmHg),ready biodegradability,log10 Henry constant (atm·m³/mol),log10 Koc (L/kg)
Nc1ccc2c3c(cccc13)-c1ccccc1-2,116,,,,,
O=C(O)/C=C\C(=O)O,130,,,readily biodegradable,,
C[C@]12CC[C@@H]3c4ccc(OC(=O)N(CCCl)CCCl)cc4CC[C@H]3[C@@H]1CC[C@@H]2O,104,,,,,
CCOC(=O)c1ccccc1O,1,232,-1.07,readily biodegradable,,
CCC=CCC(=O)O,12,208,,,,
O=C(Cl)c1ccc(F)cc1,9,,,,,
N=C(N)S(=O)O,,,,readily biodegradable,,
CCN(CC)c1ccccc1C,-60,209,,,,
O=C1Nc2ccccc2CCc2ccccc21,,,,readily biodegradable,,
CCCCC(CC)COC(=O)c1ccccc1C(=O)OCC(CC)CCCC (centres undefined),-55,384,-6.85,not readily biodegradable,,4.94
Nc1cc(C(Cl)=C(Cl)Cl)c(S(N)(=O)=O)cc1S(N)(=O)=O,203,,,,,
O=C(O)c1cccc(I)c1,188,,,,,
CC(C)C(C)CCC(C)C1CCC2=C3CCC4CC(O)CCC4(C)C3CCC21C (centres undefined),131,,,,,
FC(F)(Cl)CBr,-76,68.4,,,,
Cn1ccc(=O)c2ccccc21,152,,,,,
C=CC(O)CC (centres undefined),,115,,,,
CCCC(C)(C)C(C)C,-117,138,0.993,,,
C=Cc1ccc(CCl)cc1,,,,not readily biodegradable,,
Oc1ccc(Sc2ccc(O)cc2)cc1,155,,,,,
CC1=CC(=O)NS(=O)(=O)O1,123,,,,,
O=S=Nc1ccccc1,,200,,,,
CC(CCO)CC(C)(C)C (centres undefined),,194,-0.523,not readily biodegradable,,
c1ccc(C2=N[C@H](c3ccccc3)[C@@H](c3ccccc3)N2)cc1,134,,,,,

Compound,melting point [°C],boiling point [°C],log10 vapour pressure (mmHg),ready biodegradability,log10 Henry constant (atm·m³/mol),log10 Koc (L/kg)
CN1CC1,,27.5,,,,
CNc1ccc(NCCO)c2c1C(=O)c1ccccc1C2=O,187,,,,,
CCCCOC(=O)c1ccccc1O,-5.9,271,,,,
NC(=O)c1cccs1,182,,,,,
FC1(F)C(Cl)=C(Cl)C(F)(F)C1(F)F,-106,90.7,,,,
OCc1ccncc1,53,,,,,
FC=C(F)F,,-51,,,,
Cc1cc(C)c(C=O)c(C)c1,14,238,,,,
CC1=C(C(=O)Nc2ccccc2)SCCO1,91.5,,-6.82,readily biodegradable,,2.41
CCOC(=O)C=Cc1ccccc1,7,271,-2.49,,,
OB(O)c1ccccc1,219,,,,,
CCNc1nc(Cl)nc(NCC(=O)OCC)n1,228,,,,,
O=C1C(Cl)C(CCl)CN1c1cccc(C(F)(F)F)c1 (centres undefined),67.7,,-5.48,,,
Cc1cc(C)c(Br)cc1C,73,234,,,,
COc1cccc(CC(=O)O)c1,72,,,,,
CCCCCCCCCC(=O)OC(=O)CCCCCCCCC,24.7,,,,,
CC(N)CO (centres undefined),,174,,,,
CNc1ccc(N)c2c1C(=O)c1ccccc1C2=O,193,,,,,
c1ccc(Cc2ccccc2)cc1,25.2,265,-2.09,not readily biodegradable,,
CCS(=O)(=O)CCn1c([N+](=O)[O-])cnc1C,128,,,,,
CC1CCC(=O)N1C (centres undefined),,217,,,,
